Data set [1] is described as follows: Cmax in dog at 1 mg/kg, po. The format is ADME, organism-based, Canis lupus familiaris. On the set-up: dose 1 mg/kg, route oral. The conditions noted are these: in vivo.
Data set [2] can be described thus: Unbound fraction in rat serum. It is filed as ADME, cell-free.
The nature of data set [3]: Half life in rat at 2 mg/kg, iv. The format is ADME, organism-based. To be noted: in vivo.
Data set [4] in a line: Cmax in Balb/c mouse at 10 mg/kg, po. It is filed as ADME, organism-based. The arrangement: dose 10 mg/kg, route oral. The conditions noted are these: in vivo.
Data set [5] deals with T1, Nuclear receptor subfamily 1 group I member 2 (Homo sapiens, UniProt O75469).
T1 sequence (O75469 whole entry): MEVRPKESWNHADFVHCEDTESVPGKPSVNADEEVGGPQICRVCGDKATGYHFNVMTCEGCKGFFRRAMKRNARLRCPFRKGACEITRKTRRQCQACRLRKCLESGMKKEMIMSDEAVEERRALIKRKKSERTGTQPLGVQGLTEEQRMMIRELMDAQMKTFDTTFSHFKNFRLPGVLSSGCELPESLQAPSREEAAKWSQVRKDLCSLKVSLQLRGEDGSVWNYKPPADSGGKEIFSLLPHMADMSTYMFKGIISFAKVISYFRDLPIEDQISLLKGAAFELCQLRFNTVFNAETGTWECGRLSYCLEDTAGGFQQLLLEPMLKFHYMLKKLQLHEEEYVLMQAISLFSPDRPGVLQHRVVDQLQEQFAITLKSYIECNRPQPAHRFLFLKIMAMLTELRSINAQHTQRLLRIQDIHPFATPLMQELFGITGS
The data set can be described thus: Agonist activity at PXR (unknown origin) by Gal4-Luc reporter gene assay). Background: A reporter such as luciferase makes a cellular process visible.

The test system of data set [6] is Mus musculus. Nature of the data set: Suppression of IL-22 RNA expression in skin region of mouse model of IL-23 induced acanthosis model of psoriasis at 3 to 30 mg/kg, po BID for 10 days measured every other day. The format is functional.
Data set [7] concerns the target T2, Oxysterols receptor LXR-beta (Homo sapiens, UniProt P55055).
T2 sequence (P55055 whole entry): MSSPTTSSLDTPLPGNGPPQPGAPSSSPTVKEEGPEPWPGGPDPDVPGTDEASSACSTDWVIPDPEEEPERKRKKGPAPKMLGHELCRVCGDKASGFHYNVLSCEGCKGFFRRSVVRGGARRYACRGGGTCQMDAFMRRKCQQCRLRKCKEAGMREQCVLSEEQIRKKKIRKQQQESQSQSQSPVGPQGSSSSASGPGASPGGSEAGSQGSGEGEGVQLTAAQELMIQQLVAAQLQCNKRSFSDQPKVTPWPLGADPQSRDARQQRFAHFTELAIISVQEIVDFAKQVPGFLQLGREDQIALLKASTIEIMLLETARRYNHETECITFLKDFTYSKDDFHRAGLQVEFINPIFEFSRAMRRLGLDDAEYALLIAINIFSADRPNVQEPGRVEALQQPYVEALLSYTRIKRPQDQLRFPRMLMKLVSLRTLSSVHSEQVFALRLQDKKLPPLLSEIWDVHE
Nature of the data set: Agonist activity at LXRbeta (unknown origin) by Gal4-Luc reporter gene assay.

Data set [8] in a line: Volume of distribution at steady state in mouse at 2 mg/kg, iv. The format is ADME, organism-based. The conditions noted are these: in vivo, read-out: Vdss.
Data set [9] addresses T3, Nuclear receptor ROR-alpha (Homo sapiens, UniProt P35398).
T3 sequence (P35398 whole entry): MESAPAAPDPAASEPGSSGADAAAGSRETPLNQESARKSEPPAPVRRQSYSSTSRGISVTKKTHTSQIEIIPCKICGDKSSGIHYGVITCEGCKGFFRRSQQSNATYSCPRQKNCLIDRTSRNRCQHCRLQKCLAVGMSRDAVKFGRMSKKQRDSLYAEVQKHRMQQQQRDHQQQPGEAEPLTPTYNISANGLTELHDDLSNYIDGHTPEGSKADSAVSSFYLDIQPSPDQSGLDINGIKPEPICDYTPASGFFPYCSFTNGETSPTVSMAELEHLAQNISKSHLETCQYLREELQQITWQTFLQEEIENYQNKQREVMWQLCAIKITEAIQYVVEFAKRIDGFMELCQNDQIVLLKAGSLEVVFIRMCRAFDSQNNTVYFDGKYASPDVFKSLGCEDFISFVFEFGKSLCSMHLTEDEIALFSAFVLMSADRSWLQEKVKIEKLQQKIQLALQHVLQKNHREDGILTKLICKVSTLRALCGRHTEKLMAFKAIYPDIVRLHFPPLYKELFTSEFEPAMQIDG
Nature of the data set: Agonist activity at RORalpha (unknown origin) by Gal4-Luc reporter gene assay.

The test system of data set [10] is Mus musculus. The data set can be described thus: Suppression of ear thickness in mouse model of IL-23 induced acanthosis model of psoriasis at 3 mg/kg, po BID for 10 days measured every other day relative to anti-IL-23 positive control. It is filed as functional.
In data set [11] the test system is Mus musculus. Nature of the data set: Suppression of ear thickness in mouse model of IL-23 induced acanthosis model of psoriasis at 30 mg/kg, po BID for 10 days measured every other day relative to anti-IL-23 positive control. The format is functional.
For data set [12], the target named is T2, Oxysterols receptor LXR-beta. Nature of the data set: Activity at LXRbeta (unknown origin).
In the next data set the target is T4, Cytochrome P450 2C8 (Homo sapiens, UniProt P10632).
T4 sequence (P10632 whole entry): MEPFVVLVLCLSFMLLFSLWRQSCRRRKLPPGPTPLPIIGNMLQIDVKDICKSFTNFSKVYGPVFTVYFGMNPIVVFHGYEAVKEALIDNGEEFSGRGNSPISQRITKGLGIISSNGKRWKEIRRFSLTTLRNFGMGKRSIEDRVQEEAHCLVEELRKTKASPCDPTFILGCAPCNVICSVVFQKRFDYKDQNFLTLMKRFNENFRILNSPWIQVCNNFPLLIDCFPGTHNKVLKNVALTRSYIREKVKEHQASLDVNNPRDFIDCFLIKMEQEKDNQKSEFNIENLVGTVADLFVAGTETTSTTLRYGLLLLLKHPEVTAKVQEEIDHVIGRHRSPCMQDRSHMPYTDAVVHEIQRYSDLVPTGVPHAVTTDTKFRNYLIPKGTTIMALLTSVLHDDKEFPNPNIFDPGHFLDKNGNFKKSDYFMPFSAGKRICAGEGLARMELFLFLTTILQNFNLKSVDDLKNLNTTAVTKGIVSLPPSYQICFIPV
The data set can be described thus: Inhibition of recombinant CYP2C8 (unknown origin). It is filed as ADME.

Data set [13] can be described thus: Volume of distribution at steady state in rat at 2 mg/kg, iv. It is filed as ADME, organism-based. To be noted: in vivo, read-out: Vdss.
The target in data set [14] is T5, Oxysterols receptor LXR-alpha (Homo sapiens, UniProt Q13133).
T5 sequence (Q13133 whole entry): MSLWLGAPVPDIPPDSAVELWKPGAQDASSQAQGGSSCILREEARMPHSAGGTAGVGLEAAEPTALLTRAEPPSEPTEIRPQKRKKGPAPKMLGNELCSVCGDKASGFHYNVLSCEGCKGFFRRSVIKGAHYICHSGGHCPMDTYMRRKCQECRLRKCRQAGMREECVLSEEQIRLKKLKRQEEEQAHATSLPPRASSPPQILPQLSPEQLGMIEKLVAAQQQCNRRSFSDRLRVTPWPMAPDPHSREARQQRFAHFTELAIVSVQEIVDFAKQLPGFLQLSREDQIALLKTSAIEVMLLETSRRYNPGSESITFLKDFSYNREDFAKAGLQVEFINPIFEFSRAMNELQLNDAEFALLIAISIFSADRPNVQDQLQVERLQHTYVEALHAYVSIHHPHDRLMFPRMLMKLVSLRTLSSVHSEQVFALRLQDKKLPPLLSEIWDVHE
The data set can be described thus: Activity at LXRalpha (unknown origin).

From ChEMBL document CHEMBL4334512, “Rationally Designed, Conformationally Constrained Inverse Agonists of RORγt-Identification of a Potent, Selective Series with Biologic-Like in Vivo Efficacy” (J Med Chem, 2019) come the findings set out here.

pEC50, pIC50: −log10 of the molar value.

As for `O=C(N1CC[C@@]2(S(=O)(=O)c3ccc(F)cc3)c3ccc(C(F)(C(F)(F)F)C(F)(F)F)cc3CC[C@@H]12)C1(O)CCS(=O)(=O)CC1`, the Cmax in [1] amounted to 700 nM; in [4], 2900 nM. Moreover, in data set [2], the fraction unbound was 0.011. The compound further showed a half-life in [3] of 7 h. Also, the pEC50 in data set [5] was less than 4.30; in data set [7], less than 5.12; in data set [9] it was less than 5.00. In addition, the Activity entry in the data set with Mus musculus [6] was “Dose-dependent effect”. Also, the 50% effect level with Mus musculus [6] (240 h) (ED50) was put at a dose of 3 mg/kg. The Vd in [8] was found to be 2.7 L/kg; in [13] it was 2.9 L/kg. The Efficacy in the data set with Mus musculus [10] came to 48%; with Mus musculus [11], 98%. In addition, the pIC50 in [12] was less than 5.00; on Cytochrome P450 2C8 it was 4.82; in data set [14] it was less than 5.00.

As usually defined, the Cmax is the peak of the concentration-time curve. As usually defined, the fraction unbound is the share of the substance not bound to proteins or other matrix. High values mean much free substance, low ones little free substance. What is called half-life is how long it takes for the measured level to halve. A higher half-life goes with slow decline. What is called pEC50 is the EC50 on a negative log10 scale, so that one unit is a factor of ten. Lower therefore signals a large EC50. Broadly, the ED50 is the dose at which the effect has come halfway, by size or by number of responders. Broadly, the pIC50 is the IC50 on a negative log10 scale, so that one unit is a factor of ten.
